Source: patent US20080096449A1, “USE OF METALLIC GLUCONATE SALTS IN THE PRODUCTION OF ANTIMICROBIALLY ACTIVE SUBSTRATES” (priority 2002, published 2008)

How the values were obtained:
Experiment in all cases: Minimum inhibitory concentration (MIC)
Type in all cases: cell-based
[1] = tested on: Candida albicans ATCC 10231; details: strain CA
[2] = tested on: Aspergillus niger ATCC 16404; details: strain AN
[3] = tested on: Pseudomonas aeruginosa ATCC 9027; details: strain PA
[4] = tested on: Escherichia coli ATCC 11229; details: strain EC
[5] = tested on: Staphylococcus aureus ATCC 6538; details: strain SA

zinc gluconate
MIC [1]: 3120 ppm | MIC [2]: 6250 ppm | MIC [3]: 12500 ppm | MIC [4]: 6250 ppm | MIC [5]: 5000 ppm
